Earlier results on one compound are cited in patent US8828412B2, “Stable polyphenol containing ophthalmic emulsion for treating dry eyes” (Abbott Medical Optics Inc., priority 2009, dated 2014).

The conditions of this data set: reported; species not stated.

Turning to `COc1cc(/C=C/C(=O)CC(=O)/C=C/c2ccc(O)c(OC)c2)ccc1O` [curcumin], the oral bioavailability result is given as “about 60%”.
